Measurements as given in ChEMBL document CHEMBL5120778, “Jatrophane Diterpenoids with Kv1.3 Ion Channel Inhibitory Effects from Euphorbia helioscopia” (J Nat Prod, 2022).

Assays:
[1] = biological target: T1, Potassium voltage-gated channel subfamily A member 3 (Homo sapiens, UniProt P22001); assay: Inhibition of human Kv1.3 expressed in HEK293 cells assessed as inhibition of tetracyclin induced current at 1 uM at holding potential of -80 mV by patch clamp method relative to control; assay type: cell-based
HEK293 = assay: Cytotoxicity against HEK293 cells assessed as reduction in cell proliferation at 30 uM; assay type: toxicity, cell-based; conditions: human, hek293, 30 µM
[2] = biological target: T1, Potassium voltage-gated channel subfamily A member 3; assay: Inhibition of human Kv1.3 expressed in HEK293 cells assessed as inhibition of tetracyclin induced current at 30 uM at holding potential of -80 mV by patch clamp method relative to control; assay type: cell-based
[3] = biological target: T1, Potassium voltage-gated channel subfamily A member 3; assay: Inhibition of human Kv1.3 expressed in HEK293 cells assessed as inhibition of tetracyclin induced current at holding potential of -80 mV by patch clamp method; assay type: cell-based

T1 sequence (P22001 whole entry): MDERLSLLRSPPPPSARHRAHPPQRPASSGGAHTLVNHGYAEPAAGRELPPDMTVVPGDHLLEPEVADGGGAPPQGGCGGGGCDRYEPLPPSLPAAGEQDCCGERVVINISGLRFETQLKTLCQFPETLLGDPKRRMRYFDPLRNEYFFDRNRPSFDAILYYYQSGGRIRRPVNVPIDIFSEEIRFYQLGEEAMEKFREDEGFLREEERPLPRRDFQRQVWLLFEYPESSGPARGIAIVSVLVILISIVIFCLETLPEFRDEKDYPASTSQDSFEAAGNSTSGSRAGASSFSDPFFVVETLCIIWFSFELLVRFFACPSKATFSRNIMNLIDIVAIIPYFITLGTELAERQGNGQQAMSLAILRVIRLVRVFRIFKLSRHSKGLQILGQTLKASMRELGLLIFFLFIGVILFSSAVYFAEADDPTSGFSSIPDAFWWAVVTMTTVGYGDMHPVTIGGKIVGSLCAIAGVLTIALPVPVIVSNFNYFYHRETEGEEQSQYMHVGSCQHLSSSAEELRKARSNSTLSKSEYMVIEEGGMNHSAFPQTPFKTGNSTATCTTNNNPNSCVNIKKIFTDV

| SMILES | inhibition [1] [%] | Activity (HEK293) | inhibition [2] [%] | IC50 [3] [µM] |
| --- | --- | --- | --- | --- |
| CC(=O)O[C@@H]1C[C@@H](OC(C)=O)C(C)(C)/C=C/[C@H](C)[C@@H](O)[C@@]2(OC(C)=O)C[C@@H](C)[C@H](OC(=O)c3ccccc3)[C@@H]2/C=C/1C | 21.1 | Non-Toxic | 97.4 | – |
| CC(=O)O[C@]12C[C@@H](C)[C@H](OC(=O)c3ccccc3)[C@@H]1/C=C(\C)[C@H](O)CC(=O)C(C)(C)[C@@H](O)/C=C(\C)C2=O | 5.67 | Non-Toxic | 90.7 | – |
| CC(=O)O[C@]12C[C@@H](C)[C@H](OC(=O)c3ccccc3)[C@@H]1/C=C(\C)[C@H](O)CC(=O)C(C)(C)/C=C/[C@@H](C)[C@H]2O | 13.4 | Non-Toxic | 93.9 | – |
| CC(=O)O[C@@H]1C[C@@H](O)/C(C)=C/[C@H]2[C@@H](OC(=O)c3ccccc3)[C@H](C)C[C@]2(OC(C)=O)C(=O)/C(C)=C/[C@H](O)C1(C)C | 6.06 | Non-Toxic | 85.6 | – |
| CC(=O)O[C@@H]1C[C@@H](OC(C)=O)C(C)(C)/C=C/[C@H](C)[C@H](OC(C)=O)[C@@]2(O)C[C@H](C)[C@H](OC(=O)c3ccccc3)[C@@H]2/C=C/1C [EUPHORNIN] | 8.87 | Non-Toxic | 88.7 | – |
| CC(=O)O[C@@H]1[C@H](C)/C=C/C(C)(C)C(=O)C[C@@H](OC(=O)c2cccnc2)/C(C)=C/[C@H]2[C@@H](OC(=O)c3ccccc3)[C@H](C)C[C@]12OC(C)=O | 10.5 | Non-Toxic | 95.3 | – |
| CC(=O)O[C@@H]1[C@H](C)/C=C/C(C)(C)C(=O)C[C@@H](OC(C)=O)/C(CO)=C/[C@H]2[C@@H](OC(=O)c3ccccc3)[C@H](C)C[C@]12OC(C)=O | 5.38 | Non-Toxic | 97.5 | – |
| CC(=O)O[C@@H]1CC(=O)/C(C)=C/[C@H]2[C@@H](OC(=O)c3ccccc3)[C@@H](C)C[C@]2(O)[C@@H](OC(C)=O)[C@@H](C)/C=C/C1(C)C | 4.72 | Non-Toxic | 89.4 | – |
| CC(=O)O[C@@H]1C[C@@H](O)/C(C)=C/[C@H]2[C@@H](OC(=O)c3ccccc3)[C@@H](C)C[C@]2(OC(C)=O)C(=O)/C(C)=C/[C@H](O)C1(C)C | 7.36 | Non-Toxic | 84.4 | – |
| CC(=O)O[C@]12C[C@H](C)[C@H](OC(=O)c3ccccc3)[C@@H]1/C=C(\C)[C@H](O)CC(=O)C(C)(C)C/C=C(\C)C2=O | 4.96 | Non-Toxic | 88.7 | – |
| CC(=O)O[C@@H]1[C@@H](C)/C=C/C(C)(C)C(=O)C[C@@H](OC(C)=O)/C(CO)=C/[C@H]2[C@@H](OC(=O)c3ccccc3)[C@H](C)C[C@]12OC(C)=O | 5.94 | Non-Toxic | 96.9 | – |
| CC(=O)O[C@@H]1[C@@H](C)/C=C/C(C)(C)[C@H](OC(C)=O)C[C@@H](OC(C)=O)/C(C)=C/[C@H]2[C@@H](OC(=O)c3ccccc3)[C@@H](C)C[C@]12OC(C)=O | 8.34 | Non-Toxic | 90 | – |
| CC(=O)O[C@@H]1C[C@@H](OC(C)=O)C(C)(C)[C@H](O)/C=C(\C)[C@H](OC(C)=O)[C@@]2(OC(C)=O)C[C@H](C)[C@H](OC(=O)c3ccccc3)[C@@H]2/C=C/1C | 50.4 | Non-Toxic | 93.7 | 0.9 |
| CC(=O)O[C@@H]1[C@H](C)/C=C/C(C)(C)C(=O)C[C@@H](O)/C(C)=C/[C@H]2[C@@H](OC(=O)c3ccccc3)[C@H](C)C[C@]12OC(C)=O | 2.38 | Non-Toxic | 94.6 | – |
| CC(=O)O[C@@H]1C[C@@H](OC(C)=O)C(C)(C)/C=C/[C@H](C)[C@H](OC(C)=O)[C@@]2(O)C[C@H](C)[C@H](OC(=O)c3cccc(O)c3)[C@@H]2/C=C/1C | 6.16 | Non-Toxic | 74.4 | – |
| CC(=O)O[C@@H]1[C@H](C)[C@@H](C=C(C)C)C(=O)C[C@@H](OC(=O)c2cccnc2)/C(C)=C/[C@H]2[C@@H](OC(=O)c3ccccc3)[C@H](C)C[C@]12OC(C)=O | 30.9 | Non-Toxic | 98.7 | 6.5 |
| Fc1ccc([C@@H]2CCNC[C@H]2COc2ccc3c(c2)OCO3)cc1 [PAROXETINE] | – | Non-Toxic | 48.1 | 31.9 |
| CC(=O)O[C@@H]1C[C@@H](OC(C)=O)C(C)(C)[C@@H](O)/C=C(\C)C(=O)[C@@]2(OC(C)=O)C[C@H](C)[C@H](OC(=O)c3ccccc3)[C@@H]2/C=C/1C | 57 | Non-Toxic | 98.6 | 0.9 |
| CC(=O)O[C@@H]1C[C@@H](OC(C)=O)C(C)(C)[C@H](O)[C@H]2O[C@@]3(C[C@H](C)[C@H](OC(=O)c4ccccc4)[C@@H]3/C=C/1C)[C@@H](OC(C)=O)[C@H]2C | 21 | Non-Toxic | 96.2 | – |
| CC(=O)O[C@@H]1C[C@@H](OC(C)=O)C(C)(C)[C@@H](O)[C@H](O)[C@H](C)[C@H](OC(C)=O)[C@@]2(O)C[C@H](C)[C@H](OC(=O)c3ccccc3)[C@@H]2/C=C/1C | 24.3 | Non-Toxic | 95.7 | – |
| CC(=O)O[C@@H]1CC(=O)C(C)(C)/C=C/[C@@H](C)[C@@H](O)[C@@]2(OC(C)=O)C[C@H](C)[C@H](OC(=O)c3ccccc3)[C@@H]2/C=C/1C | 24.6 | Non-Toxic | 85.4 | – |
